Data published in patent publication US6458746B1, “Plant growth regulating formulations” (BASF Aktiengesellschaft, priority 1998, dated 2002).

Tests used:
Format in all cases: in vivo
[1] = system: rice seedlings [cvs. “Koshihikari” (tall), “Tan-ginbozu” (dwarf), “Waito C” (dwarf)]; assay: Shoot growth of rice seedlings, combinations with GA3; conditions: 7 days after treatment, 1 kg/ha ammonium sulphate added; for Shoot growth Waito C [% of Control]: 100% = 8.7 cm; for Shoot growth Tan-ginbozu [% of Control]: 100% = 9.4 cm; for Shoot growth Koshihikari [% of Control]: 100% = 17.4 cm
Experimental: (§1) Unless otherwise noted, the growth regulating proerties of different compounds in different formulations were determined under greenhouse conditions as follows: […]
(§2) Test plants were grown in plastic pots of approximately 12.5 cm in diameter in a substrate provided with sufficient nutrients and water. At an appropriate shoot length the plants were treated with aqueous sprays of the formulations. The growth-regulating action observed was confirmed at the end of the experiment by measuring the height of the plants. The results obtained were compared with the growth height of the untreated plants.
The synergizing effect of compound VII on shoot elongation in rice is shown in the results of Example 7.
Enhanced shoot growth of rice seedlings [cvs. “Koshihikari” tall), “Tan-ginbozu” (dwarf), “Waito C” (dwarf)] 7 days after treatment with combinations of compound 6 with GA3^d

wheat = assay: Greenhouse shoot length test, wheat; conditions: for Shoot length reduction [activity, relative to control] in wheat: 1% formulations in cyclohexanone: Emulan EL = 4:1; for Shoot length Wheat [% of control]: 1% formulations in Atlas G 1086; for dosages of active ingredient needed to obtain results equivalent to compounds VI, VII, and IX: in wheat; as to Shoot length reduction [activity, relative to control] in wheat: key: 0: no effect; +: low activity; ++: intermediate activity; +++: high activity
Experimental: as §1, §2
(§3) Assays with wheat, barley, oat, and rye plants were carried out as described above. The aqueous spray solutions were prepared as follows: […]

barley = assay: Greenhouse shoot length test, barley; conditions: for Shoot length reduction [activity, relative to control] in barley: 1% formulations in cyclohexanone: Emulan EL = 4:1; for Shoot length Barley [% of control]: 1% formulations in Atlas G 1086
Experimental: as §1, §2, §3

oats = assay: Greenhouse shoot length test, oats; conditions: 1% formulations in cyclohexanone: Emulan EL = 4:1; also: key: 0: no effect; +: low activity; ++: intermediate activity; +++: high activity
Experimental: as §1, §2

rye = assay: Greenhouse shoot length test, rye; conditions: 1% formulations in cyclohexanone: Emulan EL = 4:1; also: key: 0: no effect; +: low activity; ++: intermediate activity; +++: high activity
Experimental: as §1, §2

rice = assay: Greenhouse shoot length test, rice; conditions: 1% formulations in cyclohexanone: Emulan EL = 4:1; also: key: 0: no effect; +: low activity; ++: intermediate activity; +++: high activity
Experimental: as §1, §2

[2] = system: small grains and rice (wheat, barley, oats, rye, rice); assay: Shoot length reduction in small grains and rice (statements across species); conditions: for shoot length reduction compared with compounds II to V: Examples 1 and 2; for activity-enhancing effects of ethoxylated castor oil R 15: barley and wheat, Example 5; for dosages needed to obtain results equivalent to compounds VI, VII, and IX: in these plant species, applied in commercial formulations; for activity in the other plant species compared with wheat: plant species other than wheat
Experimental: as §1, §2

[3] = system: spring barley (cv. “Alexis”); assay: Shoot height reduction in spring barley, synergistic combinations; conditions: 20 days after treatment
Experimental: as §1, §2
(§4) To show the synergistic effects of formulations in accordance with the instant invention together with further growth regulating agents, formulations in accordance with the invention were prepared and additional active ingredients added.
Shoot height reduction in spring barley (cv. “Alexis”) 20 days after treatment with combinations of standard compound S2 and compound VII
Shoot height reduction in spring barley (cv. “Alexis”) 20 days after treatment with combinations of standard compound S4 and compound VII

[4] = system: spring wheat (cv. “Ralle”); assay: Shoot height reduction in spring wheat, synergistic combinations
Experimental: as §1, §2, §4
Shoot height reduction in spring wheat (cv. “Ralle”) 21 days after treatment with combinations of standard compound S4 and compound VII
Shoot height reduction in spring wheat (cv. “Ralle”) 13 days after treatment with combinations of standard compound S5 and compound VII

[5] = 250 g/ha ai, adjuvant R 15 500 g/ha
[6] = 750 g/ha ai, adjuvant R 15 500 g/ha

## C=C1C[C@]23C[C@@]1(O)CC[C@H]2[C@@]12C=C[C@H](O)[C@@](C)(C(=O)O1)[C@H]2[C@@H]3C(=O)O (single isomer, unassigned; ent-3) [S6, ent-3α,10,13-trihydroxy-20-norgiberrell-1,16-diene-7,19-dioic acid 19,10-lactone, reference compound]
[1]; S6 1.25 g/ha ai
  Shoot growth Waito C [% of Control]: 115 % of Control
  Shoot growth Tan-ginbozu [% of Control]: 128 % of Control
  Shoot growth Koshihikari [% of Control]: 109 % of Control
[1]; S6 2.50 g/ha ai
  Shoot growth Waito C [% of Control]: 143 % of Control
  Shoot growth Tan-ginbozu [% of Control]: 160 % of Control
  Shoot growth Koshihikari [% of Control]: 112 % of Control
[1]; S6 5.00 g/ha ai
  Shoot growth Waito C [% of Control]: 190 % of Control
  Shoot growth Tan-ginbozu [% of Control]: 186 % of Control
  Shoot growth Koshihikari [% of Control]: 124 % of Control

## CC1CC23CC1(O)CCC2C12CC=CC(C)(C(=O)O1)C2C3C(=O)O (stereo not drawn) [Comp. II, exo-16,17-Dihydro-GA5]
wheat
  Shoot length reduction [activity, relative to control] in wheat: +
barley
  Shoot length reduction [activity, relative to control] in barley: +
oats
  Shoot length reduction [activity, relative to control] in oats: 0
rye
  Shoot length reduction [activity, relative to control] in rye: ++

## CCCO[C@]12CC[C@@H]3[C@](C[C@H]1C)(C2)[C@@H](C(=O)O)[C@H]1[C@@]32CC=C[C@]1(C)C(=O)O2 [Comp. IX, exo-16,17-Dihydro-GA5-13-n-propyl ether]
wheat
  Shoot length reduction [activity, relative to control] in wheat: ++
barley
  Shoot length reduction [activity, relative to control] in barley: ++
oats
  Shoot length reduction [activity, relative to control] in oats: ++
rye
  Shoot length reduction [activity, relative to control] in rye: ++
rice
  Shoot length reduction [activity, relative to control] in rice: ++
[2]
  shoot length reduction compared with compounds II to V: superior to compounds II to V

## CC(=O)OC12CCC3C(CC1C)(C2)C(C(=O)O)C1C2(C)C=CCC13OC2=O (stereo not drawn) [Comp. VI, endo-16,17-Dihydro-GA5-13-acetate]
wheat
  Shoot length reduction [activity, relative to control] in wheat: +++
wheat; 1.6 g/ha ai
  Shoot length Wheat [% of control]: 88 % of control
wheat; 3.1 g/ha ai
  Shoot length Wheat [% of control]: 88 % of control
wheat; 6.3 g/ha ai
  Shoot length Wheat [% of control]: 68 % of control
wheat; 12.5 g/ha ai
  Shoot length Wheat [% of control]: 64 % of control
barley
  Shoot length reduction [activity, relative to control] in barley: +++
barley; 1.6 g/ha ai
  Shoot length Barley [% of control]: 95 % of control
barley; 3.1 g/ha ai
  Shoot length Barley [% of control]: 84 % of control
barley; 6.3 g/ha ai
  Shoot length Barley [% of control]: 65 % of control
barley; 12.5 g/ha ai
  Shoot length Barley [% of control]: 53 % of control
oats
  Shoot length reduction [activity, relative to control] in oats: ++
rye
  Shoot length reduction [activity, relative to control] in rye: +++
rice
  Shoot length reduction [activity, relative to control] in rice: +++
[2]
  shoot length reduction compared with compounds II to V: superior to compounds II to V

## O=P(O)(O)CCCl [S1, ethephon, reference compound]
wheat; [5]
  Shoot length [% of control] Wheat: 92 % of control
wheat; 250 g/ha ai, no adjuvant
  Shoot length [% of control] Wheat: 93 % of control
barley; [5]
  Shoot length [% of control] Barley: 101 % of control
barley; 250 g/ha ai, no adjuvant
  Shoot length [% of control] Barley: 95 % of control
[2]
  activity-enhancing effects of ethoxylated castor oil R 15: not or only at a far lower degree found
  dosages needed to obtain results equivalent to compounds VI, VII, and IX: approximately 20 times higher

## C[N+](C)(C)CCCl [S2, chlormequat chloride, reference compound]
wheat; [6]
  Shoot length [% of control] Wheat: 75 % of control
wheat; 750 g/ha ai, no adjuvant
  Shoot length [% of control] Wheat: 83 % of control
wheat
  dosages of active ingredient needed to obtain results equivalent to compounds VI, VII, and IX: approximately 100 times higher
barley; [6]
  Shoot length [% of control] Barley: 94 % of control
barley; 750 g/ha ai, no adjuvant
  Shoot length [% of control] Barley: 94 % of control
[2]
  activity-enhancing effects of ethoxylated castor oil R 15: not or only at a far lower degree found
  activity in the other plant species compared with wheat: significantly less active
[3]; 750 g/ha a.i.
  % Shoot height reduction Actual: 11%
[3]; 1500 g/ha a.i.
  % Shoot height reduction Actual: 10%

## C[N+]1(C)CCCCC1 [S3, mepiquat chloride, reference compound]
wheat
  dosages of active ingredient needed to obtain results equivalent to compounds VI, VII, and IX: approximately 100 times higher
[2]
  activity in the other plant species compared with wheat: significantly less active

## CCOC(=O)C1CC(=O)C(=C(O)C2CC2)C(=O)C1 (centres unmarked) [S5, trinexapac-ethyl, reference compound]
[2]
  dosages needed to obtain results equivalent to compounds VI, VII, and IX: approximately 20 times higher
[4]; 30 g/ha a.i., 13 days after treatment
  % Shoot height reduction Actual: 14%

## Dichloromethano-16,17-dihydro-GA5-13-acetate [Comp. V]
wheat
  Shoot length reduction [activity, relative to control] in wheat: 0
wheat; 1.6 g/ha ai
  Shoot length Wheat [% of control]: 101 % of control
wheat; 3.1 g/ha ai
  Shoot length Wheat [% of control]: 95 % of control
wheat; 6.3 g/ha ai
  Shoot length Wheat [% of control]: 84 % of control
wheat; 12.5 g/ha ai
  Shoot length Wheat [% of control]: 75 % of control
barley
  Shoot length reduction [activity, relative to control] in barley: 0
barley; 1.6 g/ha ai
  Shoot length Barley [% of control]: 99 % of control
barley; 3.1 g/ha ai
  Shoot length Barley [% of control]: 97 % of control
barley; 6.3 g/ha ai
  Shoot length Barley [% of control]: 82 % of control
barley; 12.5 g/ha ai
  Shoot length Barley [% of control]: 76 % of control
oats
  Shoot length reduction [activity, relative to control] in oats: +
rye
  Shoot length reduction [activity, relative to control] in rye: +

## endo-16,17-Dihydro-GA5 [Comp. III]
wheat
  Shoot length reduction [activity, relative to control] in wheat: ++
barley
  Shoot length reduction [activity, relative to control] in barley: ++
oats
  Shoot length reduction [activity, relative to control] in oats: 0
rye
  Shoot length reduction [activity, relative to control] in rye: +++

## prohexadione-Ca [S4, reference compound]
[2]
  dosages needed to obtain results equivalent to compounds VI, VII, and IX: approximately 20 times higher
[4]; 30 g/ha a.i., 21 days after treatment
  % Shoot height reduction Actual: 6%
[4]; 60 g/ha a.i., 21 days after treatment
  % Shoot height reduction Actual: 15%
